Data: US20260183316A1, “CANNABICHROMENE-TYPE CANNABINOID COMPOSITIONS, METHODS AND USES THEREOF” (Cronos Group Inc., priority 2022, published 2026)
Several values for one entry are separate records, joined by “and”; a condition that tells them apart may be missing. Equal values may be shown once.

Assays:
[1] = test system: C57BL/6 mice; test: Elevated plus maze (EPM), modelled anxiety; format: in vivo; conditions: 10 mg/kg p.o., 30 minutes after treatment; for time spent in the closed arms of the EPM: post-hoc no differences
Method: (§1) In addition to the physiological assessment of the tetrad, mice were subjected to several behavioural assessments detailed here. These experiments followed a set timeline beginning 30 minutes after compound administration, based on an approximation that the maximum blood concentration of drug occurred 30-60 minutes after animals had received oral gavage. In these experiments the same type of mice were used for elevated plus maze, y-maze, and forced swim test back-to-back-to-back; however, this was a separate cohort of mice from those used in tetrad or PK experiments.
Modelled anxiety—the elevated plus maze: Mice were placed in the centre space of an elevated plus maze (EPM) standing 45 cm above the floor and having 2 closed-walled arms and 2 open arms each measuring 45 cm long. Mice were placed facing an open arm and their movement recorded for 5 minutes beginning 30 minutes after drug administration. Total distance travelled, arm entries, and time spent in each arm was recorded on a video camera and scored by an individual blinded to treatment group.

[2] = test system: C57BL/6 mice; test: Nociception in the warm water tail flick assay, tetrad; format: in vivo; conditions: for ED50: Mus musculus, po, 20 min, tail flick 52° C., read-out: Pain relief ED50 (95% C.I.); for ED50 / Pain relief Emax ± S.E.M.: 20 min after 0.3-30 mg/kg p.o.; for Pain relief Emax ± S.E.M.: tail flick % MPE 20 sec; for dose-dependent reduction in pain sensation: warm water tail flick 20 minutes after administration, 0.3-30 mg/kg p.o.
Method: (§2) Female and male C57BL/6 mice between 8 and 12 weeks of age were used for these studies. Animals were group housed at the Laboratory Animal Services Unit (LASU) at the University of Saskatchewan (5 mice/cage for females, 3 mice/cage for males) with a standard 12:12 light-dark cycle, ad libitum access to food and water, and environmental enrichment. All compounds were prepared in a vehicle composed of ethanol and kolliphor in saline (1:1:8) for i.v. tail vein injections or olive oil for oral gavage (p.o.) at the doses indicated in description of the figures. Compounds were administered at the doses indicated in mg/kg body weight, with body weights being measured on the same day as drug administration. Experimenters were blinded to treatment for all assessments and analyses. Animals were purchased from Charles River Labs (Senneville, QC), rather than bred, to reduce animal numbers. At the end of experiments, mice were euthanized via isoflurane overdose and cardiac puncture. In all cases, experiments were performed with the approval of the University Animal Care Committee (UACC) at the University of Saskatchewan (Animal Use Protocol #20200043) and in keeping with the guidelines of the Canadian Council on Animal Care (CCAC).
(§3) Mice were assessed in the ‘tetrad’ battery of physiological and behavioural assessments. This included, in the following order: a bar holding assessment of catalepsy, rectal thermometer assessment of body temperature, a test of nociception in the warm water tail flick assay, and a test of locomotion and anxiety in the open field test (OFT). The precise timing of each measurement are stated in description of the figures. The same animals were used for all four measures of the tetrad.
Activation of CB1R is associated with elevated tail-flick latency (i.e. less nociception as indicated by the mouse keeping their tail in the water longer).

[3] = test system: C57BL/6 mice; test: Open field test (OFT): locomotion and time in central quadrant; format: in vivo; conditions: for dose-dependent reduction in movement in the OFT / time spent in the center of the OFT (anxiety-reducing effect): 30 minutes after administration, 0.3-30 mg/kg p.o.; for ED50: po, 0.5 h; for Movement Emax ± S.E.M.: OFT distance in 5 minutes
Method: as §2, §3
Locomotion was measured in the open field test (OFT) after compound administration. Mice were placed in the centre of an open chamber measuring 1 m×1 m for 5 minutes. Total distance travelled and time spent in the central quadrant of the field are recorded on a video camera, and the video analyzed in EthoVision XT (Noldus Information Technology Inc., Leesburg, VA).

[4] = test system: C57BL/6 mice; test: y-maze, modelled exploratory behaviour and cognition; format: in vivo; conditions: 10 mg/kg p.o., 40 min after administration
Method: as §1
Modelled exploratory behaviour and cognition—the y-maze: The y-maze consists of three […] long×15 cm wide arms equally spaced 120° apart. Mice were allowed to habituate to the y-maze with one arm closed off (the novel arm) for 15 minutes 1 day prior to the experiment. On testing day, mice were placed in the centre space the y-maze facing the novel arm. Movement and arm entries were recorded for 5 min beginning 40 minutes after drug administration. Total distance travelled, arm entries, and % correct alternations between each arm were recorded on a video camera and scored by an individual blinded to treatment group.

[5] = test system: C57BL/6 mice; test: Forced swim test (FST), modelled behavioural despair and resiliency; format: in vivo; conditions: 10 mg/kg p.o., 50 min after administration
Method: as §1
Modelled behavioural despair and resiliency—the forced swim test: Mice were placed in 800 mL of 22° C. water in a clear beaker with a 10 cm diameter such that the depth of water was approximately 10-11 cm. Mice were allowed to swim and their movement recorded for 5 minutes beginning 50 minutes after drug administration. Time spent swimming and time spent immobile was recorded on a video camera and scored by an individual blinded to treatment group.

[6] = test system: C57BL/6 mice; test: Catalepsy in the bar (ring) holding assay, tetrad; format: in vivo; conditions: for Lethargy Emax ± S.E.M.: catalepsy % MPE 60 sec, 5 min after 0.3-30 mg/kg p.o.; for dose-dependent catalepsy: ring holding assay 5 minutes after treatment, 0.3-30 mg/kg p.o.
Method: as §2, §3
Catalepsy was assessed in the bar holding assay after compound administration with mice placed so that their forepaws clasped a 0.7-cm ring clamp 4.5 cm above the surface of the testing space. The length of time the ring was held was recorded up to 60 sec (i.e., percent maximum possible effect [MPE] 60 seconds) with the trial ending if the mouse turned its […] or body or made three consecutive escape attempts. Activation of CB1R is associated with increased catalepsy.

[7] = Pharmacokinetic measurement of THC in blood (HPLC-MS/MS); conditions: analyte THC
[8] = test system: C57BL/6 mice; test: Body temperature by rectal thermometer, tetrad; format: in vivo; conditions: for dose-dependent hypothermia: 10 min after administration, 0.3-30 mg/kg p.o.; for Body temperature Emax ± S.E.M.: change in body temperature 10 min after 0.3-30 mg/kg p.o.
Method: as §2, §3
Body temperature was measured after compound administration by using a rectal thermometer. Activation of CB1R is associated with reduced body temperature.

[9] = test system: dogs; conditions: cited from earlier work
[10] = test system: Long Evans rats; conditions: CBC 3-30 mg/kg following D9-THC 3 mg/kg intraperitoneal; cited from earlier work
[11] = Pharmacokinetic measurement of CBC in blood (HPLC-MS/MS); conditions: analyte CBC
[12] = test system: rodents; conditions: intravenously administered, high doses (30 and 100 mg/kg); cited from earlier work
[13] = oral gavage once daily for 14 days, cited from earlier work
[14] = Mus musculus, OFT locomotion 30 min after 0.3-30 mg/kg p.o., read-out: Movement ED50 (95% C.I.)
[15] = time in central quadrant of OFT, 30 min after 0.3-30 mg/kg p.o.

With `CCCCCc1cc(O)c2c(c1)OC(C)(C)[C@@H]1CCC(C)=C[C@@H]21` [THC, tetrahydrocannabinol] the “overall movement in the EPM” value [1] was “reduced overall movement in the EPM, although this change was not statistically significant”, the “time in the center of the EPM” value [1] was “more time in the center compared to 1:6.92 (CBC:THC)” and the “time in the open arms of the EPM” value ([1]; not statistically significant) was “appeared to suppress time in the open arms”. For the same compound, the “time spent in the closed arms of the EPM” value [1] was “trend toward less time spent in the closed arms”, the ED50 [2] was about 3.8 mg/kg and the “Pain relief Emax ± S.E.M.” value [2] was 57% and 57 ± 16%. The “dose-dependent reduction in pain sensation” value [2] was “dose-dependent reduction in pain sensation”, the “dose-dependent reduction in movement in the OFT” value [3] was “dose-dependent reduction in movement” and the “time spent in the center of the OFT (anxiety-reducing effect)” value [3] was “dose-dependent increase in the total time spent in the center of the OFT”. For the same compound, the ED50 [3, 14] was about 6.6 mg/kg, the ED50 ([3]; Mus musculus, time in central quadrant of OFT, 30 min after 0.3-30 mg/kg p.o., read-out: Anxiety-reduction ED50 (95% C.I.)) was over 30 mg/kg and the Emax ([3]; Mus musculus, OFT, versus vehicle-treated level of approximately 3,300 cm in 5 minutes, read-out: reduction in movement at maximum effect) was 48%. The “Movement Emax ± S.E.M.” value ([3]; 30 min after 0.3-30 mg/kg p.o.) was 1,700 cm and 1,700 ± 980 cm, the “Anxiety-reduction Emax ± S.E.M.” value [3, 15] was 81 ± 72 s and the “% correct alternations in the y-maze” value [4] was “appeared to reduce correct alternations”. For the same compound, the “overall locomotion in the y-maze” value [4] was “reduced overall locomotion”, the “total arm entries in the y-maze” value [4] was “lower” and the “time swimming and time immobile in the FST compared to vehicle” value [5] was “further suppressed swimming time and increased immobile time”. The ED50 ([6]; Mus musculus, po, 5 min, catalepsy 5 min after 0.3-30 mg/kg p.o., male and female combined, read-out: Lethargy ED50 (95% C.I.)) was about 12 mg/kg, the “Lethargy Emax ± S.E.M.” value [6] was 76% and 76 ± 16% and the dose-dependent catalepsy [6] was “increasing catalepsy in a dose-dependent manner”. For the same compound, the F ([7]; 10 mg/kg i.v., Combined) was 100%, the F ([7]; 10 mg/kg i.v., Female) was 100% and the F ([7]; 10 mg/kg i.v., Male) was 100%. For the same compound, the F ([7]; 10 mg/kg p.o., Combined) was 15%, the F ([7]; 10 mg/kg p.o., Female) was 33% and the F ([7]; 10 mg/kg p.o., Male) was 3.7%. The dose-dependent hypothermia [8] was “dose-dependent hypothermia”, the ED50 ([8]; Mus musculus, po, 10 min, 10 min after 0.3-30 mg/kg p.o., read-out: Body temperature ED50 (95% C.I.)) was about 0.2 mg/kg and the “Body temperature Emax ± S.E.M.” value [8] was −2.8 °C and −2.8 ± 0.20 °C.

In the case of `CCCCCc1cc(OC(C)=O)c2c(c1)OC(C)(C)[C@@H]1CCC(C)=C[C@@H]21` [THC-OAc, tetrahydrocannabinol-o-acetate], the “degree of ataxia compared with Δ9-THC” value [9] is listed as 2 fold.

In the case of `CCCCCc1cc(O)c2c(c1)OC(C)(CCC=C(C)C)C=C2` (racemic) [CBC, cannabichromene], the “open arm entries in the EPM” value [1] is given as “trend toward CBC producing more open arm entries than other groups, this was not statistically significant”, the “time spent in the closed arms of the EPM” value [1] is given as “trend toward less time spent in the closed arms” and the “perceptual effects of D9-THC” value [10] is given as “did notsignificantly alter the perceptual effects of D9-THC”. The response rates [10] was “decrease response rates”, the ED50 [2] was over 30 mg/kg and the “Pain relief Emax ± S.E.M.” value [2] was 37 ± 13%. For the same compound, the “dose-dependent reduction in pain sensation” value [2] was “dose-dependent pain-relieving effects”, the “dose-dependent reduction in movement in the OFT” value [3] was “dose-dependent reduction in movement” and the “time spent in the center of the OFT (anxiety-reducing effect)” value [3] was “anxiety-reducing effect”. For the same compound, the ED50 [3, 14] was 35 mg/kg, the “Movement Emax ± S.E.M.” value ([3]; 30 min after 0.3-30 mg/kg p.o.) was 1,600 ± 340 cm and the “Anxiety-reduction Emax ± S.E.M.” value [3, 15] was 32 ± 7.2 s. The F ([11]; 10 mg/kg i.v., Combined) was 100%, the F ([11]; 10 mg/kg i.v., Female) was 100% and the F ([11]; 10 mg/kg i.v., Male) was 100%. The F ([11]; 10 mg/kg p.o., Combined) was 39%, the F ([11]; 10 mg/kg p.o., Female) was 53% and the F ([11]; 10 mg/kg p.o., Male) was 27%. The tetrad effects [12] was “produced locomotor suppression, catalepsy, and hypothermia consistently at high doses”, the “% correct alternations in the y-maze” value [4] was “increased % correct alternations compared to vehicle” and the “concentrations in brain tissue” value [13] was “highest concentrations in brain tissue”. For the same compound, the “maximum observed concentration and AUC in plasma” value ([13]; of the four cannabinoids tested) was “highest maximum observed concentration and AUC”, the “Lethargy Emax ± S.E.M.” value [6] was 1.1 ± 0.16 % and the dose-dependent catalepsy [6] was “no dose-dependent catalepsy”. For the same compound, the dose-dependent hypothermia [8] was “no dose-dependent hypothermia” and the “Body temperature Emax ± S.E.M.” value [8] was 0.53 ± 0.27 °C.
